Values of other authors as cited in patent US20100280255A1, “PROCESS FOR MAKING SUBSTITUTED 2-AMINO-THIAZOLONES” (AMGEN INC., priority 2007, published 2010).

What was measured:
normal subjects = settings: ingestion
healthy human volunteers = healthy human volunteers treated

## CC1(C)[C@@H](OC(=O)CCC(=O)O)CC[C@]2(C)[C@H]3C(=O)C=C4[C@@H]5C[C@@](C)(C(=O)O)CC[C@]5(C)CC[C@@]4(C)[C@]3(C)CC[C@@H]12 [carbenoxolone]
Bone nodule formation
  negative effect (of glucocorticoids) on bone nodule formation: blocked
Normal subjects
  reduction of the intraocular pressure: 20%
Healthy human volunteers
  hepatic insulin sensitivity: improved
